Source: patent US8946205B2, “1,2,4-triazolo[4,3-a]pyridine derivatives and their use as positive allosteric modulators of mGluR2 receptors” (Janssen Pharmaceuticals, Inc., priority 2009, dated 2015)
Read-outs that look alike come from different tables or passages of the source.

Assays:
male Wiga Wistar rats = assay: Conditioned avoidance response (CAR) test in rats; assay type: in vivo; conditions: for ED50: Rattus norvegicus, criterion median avoidance latency >8 s
Experimental: On the day of experiments, the mice were brought into the procedural room. They were housed individually and allowed to acclimate for at least a half hour prior to testing. Although the studies were conducted during the light cycle (from 8:00 to 16:00 h), the procedure room was only sparsely lit (3 to 30 LUX) to provide better contrast for the video tracking. Local lighting was used for the injection procedures. During each trial, an individual mouse was placed in an open field arena (grey PVC cylinder with a height of 40 cm and a diameter of 22.5 cm). Each arena was placed on an infrared LED (8×8 LEDs)-lit box (white PVC squared box; 40×40 cm^2; height 12.5 cm). Each mouse was placed in the center of the arena and allowed to explore freely for 30 min. After each trial, the arena was cleaned with a wet and subsequently with a dry cleaning cloth. An infrared sensitive tube camera and a white light source (in arena: 4-7 LUX) were mounted to the ceiling above the observation chamber to record and input activity to a computer. Animal behavior was recorded and analyzed using the Noldus Ethovision XT Video Tracking System (Version 3.1; Noldus, Wageningen, The Netherlands). The total distance traveled (cm) was calculated. Data were then exported to data management systems for further analysis and reporting. Phencyclidine (PCP)-Induced Hyperlocomotion in Mice Test compound or solvent was administered at a pre-defined time before measurement (standard: 30 min) to male NMRI mice that were challenged with phencyclidine (PCP; 5 mg/kg, s.c.) 30 min before measurement. Activity was measured for a period of 30 min. Criterion for drug-induced inhibition of hyperlocomotion: total distance<5500 counts (3.9% false positives in controls; n=154). Conditioned Avoidance Response (CAR) Test Apparatus The apparatus consisted of an inner box surrounded by an outer box. The inner box was composed of four walls of transparent, synthetic material (length×width×height: 30×30×30 cm), an open top, and a grid floor made of 15 pairs of iron bars (2 mm diameter; 6 mm inter-bar distance). Odd and even bars were connected with a source of alternative current (1.0 mA; Coulbourn Instruments Solid State Shocker/Distributor), which could be interrupted by a switch. The outer box was composed of the same material (length×width×height: 40×40×36 cm), also with an open top, with a distance of 5 cm between the inner and outer box on all sides. To decrease the amount of environmental stimuli, three walls of the outer box were made non-transparent. The front wall was left transparent to allow the necessary inspection of the animal during the test. The upper edge of the outer and inner box served as a target for the rats on which to jump with fore- and hind-paws, respectively. Avoidance Conditioning and Selection of Animals From their arrival in the laboratory on the experimental day, male Wiga Wistar rats (230±30 g) were housed in individual cages provided with bedding material. […] Experimental Sessions The rats were tested 3 times, i.e. at 60, 90 and 120 min after the injection of test compound or solvent. Latency to avoidance was recorded. […] Sleep Wake Electroencephalography (SW-EEG) in Rats SW-EEG analyses are a highly sensitive read-out of a compound's central functional activity that may provide additional insight in the potential therapeutic application (i.e. via drug classification fingerprinting). […]

male NMRI mice = assay: Phencyclidine (PCP)-induced hyperlocomotion in mice (video tracking); assay type: in vivo; conditions: for ED50: Mus musculus, sc, PCP 5 mg/kg s.c., criterion total distance <5500 counts, read-out: ED50 PCP-Inh. (inhibition of PCP-induced hyperlocomotion)
Experimental: On the day of experiments, the mice were brought into the procedural room. They were housed individually and allowed to acclimate for at least a half hour prior to testing. Although the studies were conducted during the light cycle (from 8:00 to 16:00 h), the procedure room was only sparsely lit (3 to 30 LUX) to provide better contrast for the video tracking. Local lighting was used for the injection procedures. During each trial, an individual mouse was placed in an open field arena (grey PVC cylinder with a height of 40 cm and a diameter of 22.5 cm). Each arena was placed on an infrared LED (8×8 LEDs)-lit box (white PVC squared box; 40×40 cm^2; height 12.5 cm). Each mouse was placed in the center of the arena and allowed to explore freely for 30 min. After each trial, the arena was cleaned with a wet and subsequently with a dry cleaning cloth. An infrared sensitive tube camera and a white light source (in arena: 4-7 LUX) were mounted to the ceiling above the observation chamber to record and input activity to a computer. Animal behavior was recorded and analyzed using the Noldus Ethovision XT Video Tracking System (Version 3.1; Noldus, Wageningen, The Netherlands). The total distance traveled (cm) was calculated. Data were then exported to data management systems for further analysis and reporting. Phencyclidine (PCP)-Induced Hyperlocomotion in Mice Test compound or solvent was administered at a pre-defined time before measurement (standard: 30 min) to male NMRI mice that were challenged with phencyclidine (PCP; 5 mg/kg, s.c.) 30 min before measurement. Activity was measured for a period of 30 min. Criterion for drug-induced inhibition of hyperlocomotion: total distance<5500 counts (3.9% false positives in controls; n=154). Conditioned Avoidance Response (CAR) Test Apparatus The apparatus consisted of an inner box surrounded by an outer box. The inner box was composed of four walls of transparent, synthetic material (length×width×height: 30×30×30 cm), an open top, and a grid floor made of 15 pairs of iron bars (2 mm diameter; 6 mm inter-bar distance). Odd and even bars were connected with a source of alternative current (1.0 mA; Coulbourn Instruments Solid State Shocker/Distributor), which could be interrupted by a switch. The outer box was composed of the same material (length×width×height: 40×40×36 cm), also with an open top, with a distance of 5 cm between the inner and outer box on all sides. To decrease the amount of environmental stimuli, three walls of the outer box were made non-transparent. The front wall was left transparent to allow the necessary inspection of the animal during the test. The upper edge of the outer and inner box served as a target for the rats on which to jump with fore- and hind-paws, respectively. Avoidance Conditioning and Selection of Animals From their arrival in the laboratory on the experimental day, male Wiga Wistar rats (230±30 g) were housed in individual cages provided with bedding material. […] Experimental Sessions The rats were tested 3 times, i.e. at 60, 90 and 120 min after the injection of test compound or solvent. Latency to avoidance was recorded. The median avoidance response obtained over the three experimental sessions for each rat were used for further calculations. […] Sleep Wake Electroencephalography (SW-EEG) in Rats SW-EEG analyses are a highly sensitive read-out of a compound's central functional activity that may provide additional insight in the potential therapeutic application (i.e. via drug classification fingerprinting). […] Internal efforts have confirmed that this effect is mGlu2 receptor-mediated, i.e. is absent in mGlu2 KO mice. Sleep abnormalities are often associated with CNS disorders; as such, the potential use of mGlu2 modulators could also have benefit in the treatment of CNS disorders in which (REM) sleep aberrations are manifested. […]

human mGluR2 receptor = molecular target: T1, human mGluR2 receptor (Homo sapiens, UniProt Q14416); assay: [35S]GTPγS binding assay (PAM assay, membranes from CHO cells transfected with the human mGluR2 receptor); assay type: biochemical; conditions: in presence of glutamate at EC20; pEC50 = -log EC50 (mol/L); read-out: GTPγS-hR2 PAM pEC50 (converted)
T1 construct: expressed in transfected cells; host or cells: CHO cells (membranes)
Experimental: The [^35S]GTPγS binding assay is a functional membrane-based assay used to study G-protein coupled receptor (GPCR) function whereby incorporation of a non-hydrolysable form of GTP, [^35S]GTPγS (guanosine 5′-triphosphate, labelled with […] ^35S), is measured. The G-protein α subunit catalyzes the exchange of guanosine 5′-diphosphate (GDP) by guanosine triphosphate (GTP) and on activation of the GPCR by an agonist, [^35S]GTPγS, becomes incorporated and cannot be cleaved to continue the exchange cycle (Harper (1998) Current Protocols in Pharmacology 2.6.1-10, John Wiley & Sons, Inc.). […] Here we describe the use of the [^35S]GTPγS binding assay using membranes from cells transfected with the human mGluR2 receptor and adapted from Schaffhauser et al. ((2003) Molecular Pharmacology 4:798-810) for the detection of the positive allosteric modulation (PAM) properties of the compounds of this invention.
CHO-cells were cultured to pre-confluence and stimulated with 5 mM butyrate for 24 h, prior to washing in PBS, and then collected by scraping in homogenisation buffer (50 mM Tris-HCl buffer, pH 7.4, 4° C.). Cell lysates were homogenized briefly using an ultra-turrax homogenizer. The homogenate was centrifuged at 16,000 RPM (Sorvall RC-5C plus rotor SS-34) for 10 minutes and the supernatant discarded. The pellet was resuspended in 5 mM Tris-HCl, pH 7.4 and centrifuged again (18,000 RPM, 20 min, 4° C.). The final pellet was resuspended in 50 mM Tris-HCl, pH 7.4 and stored at −80° C. in appropriate aliquots before use. Protein concentration was determined by the Bradford method (Bio-Rad, USA) with bovine serum albumin as standard.
Measurement of mGluR2 positive allosteric modulatory activity of test compounds was performed as follows. Test compounds and glutamate were diluted in assay buffer containing 10 mM HEPES acid, 10 mM HEPES salt, pH 7.4, 100 mM NaCl, 3 mM MgCl2 and 10 μM GDP. Human mGlu2 receptor-containing membranes were thawed on ice and diluted in assay buffer supplemented with 14 μg/ml saponin. Membranes were pre-incubated with compound alone or together with a predefined (˜EC20) concentration of glutamate (PAM assay) for 30 min at 30° C. After addition of [^35S]GTPγS (f.c. 0.1 nM) microplates were shaken briefly and further incubated to allow [^35S]GTPγS incorporation on activation (30 minutes, 30° C.). Final assay mixtures contained 7 μg of membrane protein in 10 mM HEPES acid, 10 mM HEPES salt, pH 7.4, 100 mM NaCl, 3 mM MgCl2,10 μM GDP and 10 μg/ml saponin. Total reaction volume was 200 μl. Reactions were terminated by rapid filtration through Unifilter-96 GF/B filter plates (Packard, Meriden, Conn.) using a 96-well Packard filtermate harvester. Filters were washed 6 times with ice-cold 10 mM NaH2PO4/10 mM Na2HPO4, pH 7.4. Filters were then air-dried, and 40 μl of liquid scintillation cocktail (Microscint-O) was added to each well. Membrane-bound radioactivity was counted in a Microplate Scintillation and Luminescence Counter from Packard.
The concentration-response curves of representative compounds of the present invention—obtained in the presence of EC20 of mGluR2 agonist glutamate to determine positive allosteric modulation (PAM)—were generated using the Lexis software interface (developed at J&J). Data were calculated as % of the control glutamate response, defined as the maximal response that is generated upon addition of glutamate alone. Sigmoid concentration-response curves plotting these percentages versus the log concentration of the test compound were analyzed using non-linear regression analysis. The concentration producing half-maximal effect is then calculated as EC50. The pEC50 values below are calculated as the −log EC50 (wherein EC50 is expressed in mol/L). […]

rats = assay: Sleep wake electroencephalography (SW-EEG) in rats; assay type: in vivo
Experimental: On the day of experiments, the mice were brought into the procedural room. They were housed individually and allowed to acclimate for at least a half hour prior to testing. Although the studies were conducted during the light cycle (from 8:00 to 16:00 h), the procedure room was only sparsely lit (3 to 30 LUX) to provide better contrast for the video tracking. Local lighting was used for the injection procedures. During each trial, an individual mouse was placed in an open field arena (grey PVC cylinder with a height of 40 cm and a diameter of 22.5 cm). Each arena was placed on an infrared LED (8×8 LEDs)-lit box (white PVC squared box; 40×40 cm^2; height 12.5 cm). Each mouse was placed in the center of the arena and allowed to explore freely for 30 min. After each trial, the arena was cleaned with a wet and subsequently with a dry cleaning cloth. An infrared sensitive tube camera and a white light source (in arena: 4-7 LUX) were mounted to the ceiling above the observation chamber to record and input activity to a computer. Animal behavior was recorded and analyzed using the Noldus Ethovision XT Video Tracking System (Version 3.1; Noldus, Wageningen, The Netherlands). The total distance traveled (cm) was calculated. Data were then exported to data management systems for further analysis and reporting. Phencyclidine (PCP)-Induced Hyperlocomotion in Mice Test compound or solvent was administered at a pre-defined time before measurement (standard: 30 min) to male NMRI mice that were challenged with phencyclidine (PCP; 5 mg/kg, s.c.) 30 min before measurement. Activity was measured for a period of 30 min. Criterion for drug-induced inhibition of hyperlocomotion: total distance<5500 counts (3.9% false positives in controls; n=154). […] Latency to avoidance was recorded. […] Sleep Wake Electroencephalography (SW-EEG) in Rats SW-EEG analyses are a highly sensitive read-out of a compound's central functional activity that may provide additional insight in the potential therapeutic application (i.e. via drug classification fingerprinting). […]

[1] = po, compound administered orally (*), read-out: ED50 CAR-Inh. (inhibition of conditioned avoidance response), administered orally

T1 sequence (Q14416 19-872): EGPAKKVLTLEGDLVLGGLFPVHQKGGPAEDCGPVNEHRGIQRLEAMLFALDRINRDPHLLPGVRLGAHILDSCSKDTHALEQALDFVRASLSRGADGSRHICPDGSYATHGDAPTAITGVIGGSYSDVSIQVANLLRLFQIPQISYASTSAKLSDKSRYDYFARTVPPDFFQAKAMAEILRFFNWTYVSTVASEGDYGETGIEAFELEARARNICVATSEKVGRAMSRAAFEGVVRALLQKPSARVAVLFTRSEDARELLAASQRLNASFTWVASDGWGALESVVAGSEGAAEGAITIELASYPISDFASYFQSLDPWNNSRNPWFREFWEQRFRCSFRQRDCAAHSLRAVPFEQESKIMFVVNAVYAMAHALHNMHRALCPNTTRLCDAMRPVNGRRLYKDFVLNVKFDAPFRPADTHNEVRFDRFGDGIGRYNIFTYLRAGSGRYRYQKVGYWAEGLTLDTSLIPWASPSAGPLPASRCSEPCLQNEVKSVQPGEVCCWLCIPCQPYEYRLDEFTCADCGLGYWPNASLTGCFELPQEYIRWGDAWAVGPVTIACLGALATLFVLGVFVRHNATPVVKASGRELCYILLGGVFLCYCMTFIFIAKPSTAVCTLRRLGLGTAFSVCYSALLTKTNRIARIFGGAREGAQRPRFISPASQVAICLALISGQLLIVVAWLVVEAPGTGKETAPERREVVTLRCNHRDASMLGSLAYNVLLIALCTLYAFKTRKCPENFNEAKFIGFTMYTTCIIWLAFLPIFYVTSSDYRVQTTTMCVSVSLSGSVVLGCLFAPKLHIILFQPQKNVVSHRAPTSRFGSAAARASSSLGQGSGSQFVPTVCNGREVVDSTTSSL

EC50 (human mGluR2 receptor) [nM] | melting point [°C] | Structure (SMILES) | inhibition of the conditioned avoidance response (in words) (male Wiga Wistar rats) | ED50 (male Wiga Wistar rats; not marked as oral, read-out: ED50 CAR-Inh. (inhibition of conditioned avoidance response)) [mg/kg] | ED50 (male Wiga Wistar rats; [1]) [mg/kg] | inhibition of PCP-induced hyperlocomotion (in words) (male NMRI mice) | ED50 (male NMRI mice) [mg/kg] | effect on REM sleep (rats; oral administration) | lowest active dose for decrease of REM sleep (rats; p.o.) [mg/kg] | effect on REM sleep (rats; 3 mg/kg, p.o.)
11.2 | 206.9 | O[C@H]1CC[C@H](n2ccc3cc(-c4ccn5c(CC6CC6)nnc5c4C(F)(F)F)ccc32)CC1 [Compound 4] | inhibited | 20 | ≥ 40 | inhibited | 13.2 |  |  | 
79.4 |  | Clc1c(-c2ccc3c(ccn3-c3cccnc3)c2)ccn2c(CC3CC3)nnc12 [Compound 17, 8-Chloro-3-cyclopropylmethyl-7-[1-(pyridin-3-yl)-1H-indol-5-yl]-[1,2,4]triazolo[4,3-a]pyridine] | inhibited |  | 20 | inhibited | 10.7 | dose-dependently decrease REM sleep | 10 | 
22.9 | 243.8 | Cc1ccc(-n2ccc3cc(-c4ccn5c(CC6CC6)nnc5c4Cl)cc(F)c32)cn1 [Compound 31] |  |  |  | inhibited | 7.1 |  |  | 
 |  | N[C@@]1(C(=O)O)CS(=O)(=O)[C@H]2[C@H](C(=O)O)[C@H]21 [LY404039, reference compound] |  |  |  |  |  |  |  | affect REM sleep
